Literature values in patent US9610269B2, “Method of treating a disease condition susceptible to baclofen therapy” (SUN PHARMA ADVANCED RESEARCH COMPANY LTD., priority 2010, dated 2017).

Legend:
[1] = in vivo
[2] = at the actual pH values

Plasma elimination half-life [1]: approximately 3.5 hours | fraction metabolized in the liver [1]: 15% | serum concentration considered an effective concentration [1]: ≥ 80 ng/mL | lipophilicity of the drug [2]: negligible
Structure (SMILES): NCC(CC(=O)O)c1ccc(Cl)cc1 (stereo not shown) [baclofen, 4-amino-3-(p-chlorophenyl) butyric acid]
